# Assays:
# hairless rat skin = assay: Skin observation and histology after patch application in hairless rats; assay type: in vivo; settings: skin excised after removing the patch, hematoxylin staining
# [1] = tested on: EpiDerm, a cell culture of normal human derived epidermal keratinocytes; assay: MTT uptake assay of irritation potential on EpiDerm cultures; assay type: cell-based; settings: 4 hrs exposure, vehicle 1:1 PBS:EtOH
# Description: Experiments to assess irritation potential were performed on the binary pairs of library CPEs at the compositions that yielded the maximum ER value in the screening experiments using the methyl thiazol tetrazolium (MTT) uptake assay. Irritation potential was estimated using EpiDermTM (MatTek Co., MA, USA, […].com), a cell culture of normal human derived epidermal keratinocytes. EpiDermTM cultures were stored and handled according to the standard protocol MTT-ET-50 (MatTek Co., MA, USA, […].com). To study the effect of the test formulations on cell viability, cell cultures were exposed to 10 μl of each test formulation for 4 hrs. Each test formulation was analyzed in duplicate. At the end of 4 hrs the assay medium was removed and stored aside at -70° C. for Interleukin-1α assay. The cell cultures were rinsed clear of the test formulations using PBS and incubated with 300 μL of MTT reagent (MatTek Co., MA, USA) for 3 hrs at 37° C. and 5% CO2. At the end of the incubation period the cell cultures were treated with 2 ml of extracting media (provided by MatTek Co) for 2 hrs. 200 μL of this extraction media was then sampled and its optical density (or absorbence) was measured at 570 nm wavelength. The optical absorbance data was then used to calculate the percentage cell viability as recommended in the MTT-ET-50 protocol.
Structure (SMILES),histology: state of the stratum corneum (hairless rat skin),irritation potential (IP) [1]
"CCCCCCCCCCCCOS(=O)(=O)[O-].[Na+] [SLS, Sodium Lauryl Sulfate]",completely detached,–
CCCCCCCC/C=C\CCCCCCCC(=O)O [oleic acid],–,14.5%
